Reference: US20240407385A1, “HIGH PURITY PHYLLODULCIN EXTRACT” (SYMRISE AG, priority 2021, published 2024)

Experiment: Sensory evaluation of sweetness compared with pure (R)-phyllodulcin (Example 4)
Assay type: in vivo
Conditions: dose 5 mg/kg; panel n=20
Method: Two samples (samples 1 and 2) were prepared by a method according to the invention. Particularly, the leaf material was extracted two times with ethyl acetate (in an amount of 5 times of the weight of the leaf material) and wherein the precipitation was performed with ethanol at 10° C. Furthermore, the solid was washed with ethanol (in an amount of 3 times of the weight of the solid) at 5° C.
Sample 3 was extracted from leaf material, however, no precipitation was performed.
The samples were then compared with the pure substance (R)-phyllodulcin with regard to their sensory evaluation.

COc1ccc([C@H]2Cc3cccc(O)c3C(=O)O2)cc1O [(R)-phyllodulcin, (3R)-8-Hydroxy-3-(3-hydroxy-4-methoxyphenyl)-3,4-dihydro-1 H-isochromen-1-one]
Sweetness: 27.0%
